Test results as given in US9758477B2, “Sulfamoylbenzamide derivatives as antiviral agents against HBV infection” (priority 2011, dated 2017).
Like-named read-outs stand apart in the source and are kept apart here.

What was measured:
HBV [1] = test: Antiviral efficacy in AML12HBV10 cells, HBV DNA by dot-blot hybridization; type: cell-based, Hepatitis B virus (HBV)
Procedure: The antiviral efficacy of the compounds of the disclosure, as presented in Tables 5, 6, 7, 8 and 9, were determined in AML12HBV10 cells. AML12HBV10 is an immortalized murine hepatocyte (AML12)-derived stable cell line that supports robust HBV replication in a tetracycline inducible manner (Xu et al.). The cells were seeded into 96 well plates at a density of 2×10^4 cells per well and cultured in DMEM/F12 media with 10% fetal bovine serum in the absence of tetracycline to allow pgRNA transcription and HBV DNA replication. One day after seeding, cells were left untreated or treated with a serial dilution of testing compounds, ranging from 50 μM to 0.39 μM, for 48 hours. Cells were then lysed by adding into each well of 100 μl lysis buffer containing 10 mM Tris-HCl (pH 7.6), 1 mM EDTA, 100 mM NaCl and 1% NP-40 and incubated at 37° C. for 30 minutes. Half amount (50 μl) of cell lysate from each well was combined with equal volume of denaturing solution containing 0.5N NaOH and 1.5M NaCl. After 5 minute incubation, 100 μl of neutralization solution (IM Tris-HCl, pH 7.4, 1.5M NaCl) was added into each well. The denatured cell lysates (totally 200 μl) were applied onto Nylon membrane using 96-well dot-blot manifold (Biorad). HBV DNA in the cell lysates were determined by dot-blot hybridization with alpha-^32P-UTP-labelled riboprobe specific for HBV minus strand DNA. The antiviral efficacy of a compound of the disclosure was expressed as the concentration that reduces the amount of HBV DNA by 50% (EC50).

[2] = Cytotoxicity in AML12HBV10 cells, MTT assay; type: cell-based, murine; conditions: mouse; AML12HBV10 cells, 48 hours, MTT; read-out: CC50 (cellular toxicity)
Procedure: (§1) Determination of cytotoxicity of compounds of the disclosure in AML12HBV10 cells: To determine the cytotoxicity of the compounds, AML12HBV10 cells were seeded into 96-well plates at a density of 2×10^4 cells per well and cultured in DMEM/F12 media with 10% fetal bovine serum in the absence of tetracycline to allow pgRNA transcription and HBV DNA replication. One day after seeding, cells were left untreated or treated with a serial dilution of testing compounds, ranging from 50 μM to 0.39 μM, for 48 hours. The cell viability was measured by a MTT assay, following procedure provided by the manufacturer (Promega). The cytotoxicity of a compound was expressed as the concentration of compound that reduces the viability of the cells by 50% (CC50).

[3] = tested on: capsid-associated HBV DNA; test: Nucleocapsid-associated HBV DNA and DNA replication intermediates (particle gel hybridization, Southern blot); type: cell-based, Hepatitis B virus (HBV); conditions: AML12HBV10 cells, 2 days, FIG. 3 panels D and E; Bay41-4109 5 μM, AT-61 25 μM
Procedure: (§2) To obtain mechanistic insight of the compounds of present invention against HBV, AML12HBV10 cells cultured in the 12-well plates were treated with a series of concentrations of DVR-1, DVR-56 or DVR-23 for two days in the absence of tetracycline (Guo et al., 2007). As positive controls, the cells were also treated with Bay41-4109 (5 μM) or AT-61 (25 μM), the known HBV nucleocapsid assembly effectors that either bind to HBV core protein dimmer to misdirect its interaction and prevent capsid formation (Bay41-4109) (Deres et al., 2003: Stray and Zlotnick, 2006), or interact with a core assembly intermediate and promote the formation of empty capsids (AT-61) (Feld et al., 2007; Katen et al., King et al., 1998). The amounts of intracellular viral mRNA, encapsidated pgRNA, capsids and nucleocapsid-associated HBV DNA were analyzed with the methods detailed below.
Procedures of viral capsids and nucleocapsid-associated DNA analysis: HepDES19 cells were lysed by addition of 300 μl buffer containing 10 mM Tris-HCl (pH7.6), 100 mM NaCl, 1 mM EDTA and 0.1% NP-40 to each well of 12-well plate. […] HBV capsids were detected by probing the membrane with an antibody against HBV core protein (DAKO). […] The viral DNA was detected by hybridization with a α-^32P-UTP (800 Ci/mmol, Perkin Elmer) labeled minus strand specific full-length HBV riboprobe (Xu et al.). […]

HBV capsids = test: Viral capsids by particle gel assay; type: cell-based, Hepatitis B virus (HBV); conditions: AML12HBV10 cells, 2 days, FIG. 3 panel B; Bay41-4109 5 μM, AT-61 25 μM
Procedure: as §2
Procedures of viral capsids and nucleocapsid-associated DNA analysis: HepDES19 cells were lysed by addition of 300 μl buffer containing 10 mM Tris-HCl (pH7.6), 100 mM NaCl, 1 mM EDTA and 0.1% NP-40 to each well of 12-well plate. […] HBV capsids were detected by probing the membrane with an antibody against HBV core protein (DAKO). […] The viral DNA was detected by hybridization with a α-^32P-UTP (800 Ci/mmol, Perkin Elmer) labeled minus strand specific full-length HBV riboprobe (Xu et al.).

encapsidated pgRNA = test: Encapsidated pgRNA by Northern blot in AML12HBV10 cells; type: cell-based, Hepatitis B virus (HBV); conditions: 2 days, FIG. 3 panel C, Bay41-4109 5 μM, AT-61 25 μM
Procedure: as §2
Determination of encapsidated pgRNA: AML12HBV10 cells were lysed by addition of 600 μl of lysis buffer (50 mM Tris-HCl [pH 7.5], 1 mM EDTA, 150 mM NaCl, 1% NP-40) into each well of 12-well plates. The nuclei were removed by centrifugation at 5,000 g for 10 minutes. One-half of the sample was mixed with 6 U of micrococcal nuclease (Pharmacia) and 15 μl of 100 mM CaCl2 and incubated for 15 minutes at 37° C. to digest free nucleic acids. The reaction was stopped with 6 μl of 0.5 M EDTA, and capsids were precipitated by adding 125 μl of 35% polyethylene glycol 8000 in 1.75 M NaCl to the reaction and incubating in ice for 30 minutes, followed by centrifugation at 6,000 g for 10 minutes at 4° C. Pellets were re-suspended in 50 μl of TNE buffer (10 mM Tris-HCl [pH 8], 100 mM NaCl, 1 mM EDTA), pgRNA was extracted by the addition of 1 ml of Trizol reagent. The encapsidated pgRNA were electrophoresed through a 2.2 M formaldehyde-1% agarose gel, transferred to a nylon membrane, and immobilized by UV cross-linking (Stratagene). Hybridization was performed with an alpha-^32P-UTP labeled riboprobe specific for plus strand of HBV genome.

AML12HBV10 cells = test: Cytotoxicity in AML12HBV10 cells, MTT assay; type: cell-based, murine
Procedure: as §1

HBV [4] = test: Antiviral activity in HepDES19 cells, core-associated HBV DNA by Southern blot hybridization; type: cell-based; conditions: Hepatitis B virus, 144 h, Table 10, HepDES19 cells, 6 days, unit inferred
Procedure: FIG. 2 and Table 10, in human hepatoma-derived cell lines: To further confirm the antiviral activity of the compounds of the disclosure against HBV in human hepatocyte-derived cells, HepDES19 cells, a human hepatoma cell line supporting HBV replication in a tetracycline inducible manner (Guo et al., 2007), seeded into 12-well plates at a density of 5×10^5 cells per well and cultured in DMEM/F12 media with 10% fetal bovine serum and 1 μg/ml tetracycline. Two days after seeding, the cells were mock-treated or treated with a serial dilution of compounds of the disclosure, ranging from 10 μM to 0.018 μM, for 6 days in the absence of tetracycline. Upon the completion of treatment, cells were lysed by adding into each well of the 12-well plates 0.5 ml of lysis buffer containing 10 mM Tris-HCl (pH 8.0), 1 mM EDTA, 1% NP40 and 2% sucrose and incubating at 37° C. for 10 minutes. Cell debris and nuclei were removed by centrifugation and the supernatant was mixed with 130 μl of 35% polyethylene glycol (PEG) 8000 containing 1.5 M NaCl. After 1 hour incubation in ice, viral nucleocapsids were pelleted by centrifugation at 6,000×g for 5 min at 4° C., followed by 1 hour digestion at 37° C. in 400 μl of digestion buffer containing 0.5 mg/ml pronase (Calbiochem), 0.5% SDS, 150 mM NaCl, 25 mM Tris-HCl (pH 8.0) and 10 mM EDTA. The digestion mixture was extracted twice with phenol and DNA was precipitated with ethanol, dissolved in TE buffer (10 mM Tris-HCl, pH 8.0; 0.1 mM EDTA). One half of the DNA sample from each well was resolved by electrophoresis into a 1.5% agarose gel. The gel was then subjected to denaturation in a solution containing 0.5 M NaOH and 1.5 M NaCl, followed by neutralization in a buffer containing 1 M Tris-HCl (pH7.4) and 1.5 M NaCl. DNA was then blotted onto Hybond-XL membrane (GE Health care) in 20×SSC buffer. The amounts of cytoplasmic HBV core-associated HBV DNA were determined by Southern blot hybridization and the antiviral efficacy of a compound was expressed as its concentration that reduce the amount of HBV DNA by 50% (EC50) or 90% (EC90).

[5] = Cytotoxicity in HepDES19 cells, MTT assay; type: cell-based; conditions: human, Table 10, HepDES19 cells, unit inferred
Procedure: as §1, with “human hepatoma-derived cell lines, HepDES19” for “AML12HBV10 cells: To determine the cytotoxicity of the compounds, AML12HBV10”, “2×10^4” left out, “tetracycline.” for “tetracycline to allow pgRNA transcription and HBV DNA replication.”, “6 days.” for “48 hours.”

[6] = Hepatitis B virus, AML12HBV10 cells, 48 hours, concentration reducing HBV DNA by 50%, read-out: EC50 (antiviral activity by dot blot hybridization)
[7] = AML12HBV10 cells, 48 hours, concentration reducing HBV DNA by 50%, read-out: EC50 (antiviral activity by dot blot hybridization)
[8] = AML12HBV10 cells, 48 hours, MTT, read-out: CC50 (cellular toxicity)

In the case of `O=C(NCc1ccccc1)c1ccc2c(c1)NC(=O)c1ccccc1S2(=O)=O`, the EC50 (HBV [1]; [6]) is reported as 8 µM and the CC50 at 48 h [2] is reported as over 50 µM.
In the case of `O=C(N/C(C(=O)N1CCCCC1)=C(/Cl)c1ccccc1)c1ccccc1` [AT-61], the “capsid-associated HBV DNA / DNA synthesis” value [3] is reported as “dose-dependently reduced”, the capsid formation (HBV capsids) is reported as “did not affect” and the “level of encapsidated pgRNA” value (encapsidated pgRNA) is reported as “dose-dependently reduced”.
In the case of `COC(=O)C1=C(C)NC(c2ncc(F)cc2F)=N[C@H]1c1ccc(F)cc1Cl` [Bay41-4109], the “capsid-associated HBV DNA / DNA synthesis” value [3] is reported as “completely abolished”, the capsid formation (HBV capsids) is reported as “completely abolished” and the “level of encapsidated pgRNA” value (encapsidated pgRNA) is reported as “completely abolished”.
With `Cc1cccc(NC(=O)c2cc(S(N)(=O)=O)ccc2Cl)c1` [DVR-16] the EC50 (HBV [1]; [7]) was 6 µM and the CC50 (AML12HBV10 cells; [8]) was over 50 µM.
Molecule `NS(=O)(=O)c1cc(C(=O)Nc2cccc(C(F)(F)F)c2)ccc1F` [DVR-19] has an EC50 (HBV [1]; [7]) of 9 µM and a CC50 (AML12HBV10 cells; [8]) of over 50 µM.
`NS(=O)(=O)c1cc(C(=O)Nc2cc(C(F)(F)F)ccc2Cl)ccc1F` [DVR-21] showed an EC50 (HBV [1]; [7]) of 6.8 µM and a CC50 (AML12HBV10 cells; [8]) of over 50 µM.
`NS(=O)(=O)c1cccc(C(=O)Nc2ccccc2)c1` [DVR-22] showed an EC50 (HBV [1]; [7]) of 8 µM and a CC50 (AML12HBV10 cells; [8]) of over 50 µM.
For `C=CCNS(=O)(=O)c1ccc(F)c(C(=O)Nc2ccc(F)c(F)c2)c1` [DVR-34], the EC50 (HBV [1]; [7]) was 4 µM and the CC50 (AML12HBV10 cells; [8]) was over 50 µM.
In the case of `O=C(Nc1ccc(F)c(F)c1)c1cc(S(=O)(=O)NC2CCCCC2)ccc1F` [DVR-45, 5-cyclohexylsulfamoyl-N-(3,4-difluoro-phenyl)-2-fluoro-benzamide], the EC90 (HBV [4]; HBV DNA reduced by 90%) is reported as 2.11 µM, the EC50 (HBV [4]; Southern blot) is reported as 0.48 µM and the EC50 (HBV [1]; [6]) is reported as 0.8 µM. It also gave an EC50 (HBV [1]; Hepatitis B virus, Table 10, AML12HBV10 cells, unit inferred, read-out: AML12HBV10 EC50) of 0.8 µM, a CC50 at 6 days [5] of over 50 µM and a CC50 (AML12HBV10 cells; Table 10, AML12HBV10 cells, unit inferred, read-out: AML12HBV10 CC50) of over 50 µM. For the same molecule, the CC50 at 48 h [2] was over 50 µM.
In the case of `COc1ccc(CCNS(=O)(=O)c2ccc(F)c(C(=O)Nc3ccc(Cl)cc3)c2)cc1OC` [DVR-91], the EC50 (HBV [1]; [7]) is reported as 16.8 µM and the CC50 (AML12HBV10 cells; [8]) is reported as over 50 µM.
